Laboratory results reported in patent US8778871B2 (Takeda Pharmaceutical Company Limited, priority 2004, dated 2014).
Non-standard residues stand in square brackets, D forms with d. *: point of attachment. Arg(NO2) = N=C(NCCC[C@H](N)C(=O)O)N[N+](=O)[O-]; Cyclohexanecarbonyl = O=C(C1CCCCC1)*; Arg(Me) = CNC(=N)NCCC[C@H](N)C(=O)O; aThr = C[C@H](O)[C@H](N)C(=O)O; azaGly = NNC(=O)O

Target: T1, hOT7T175 (Homo sapiens, UniProt Q969F8, L364H)
T1 construct: expressed in transfected cells
Assay type: cell-based
Settings: hOT7T175/CHO, FLIPR, evaluation for 40 seconds after initiation of the reaction
Experimental: The intracellular Ca ion level-increasing activity was measured using FLIPR as in TEST EXAMPLE 2.

T1 sequence (Q969F8 whole entry L364H): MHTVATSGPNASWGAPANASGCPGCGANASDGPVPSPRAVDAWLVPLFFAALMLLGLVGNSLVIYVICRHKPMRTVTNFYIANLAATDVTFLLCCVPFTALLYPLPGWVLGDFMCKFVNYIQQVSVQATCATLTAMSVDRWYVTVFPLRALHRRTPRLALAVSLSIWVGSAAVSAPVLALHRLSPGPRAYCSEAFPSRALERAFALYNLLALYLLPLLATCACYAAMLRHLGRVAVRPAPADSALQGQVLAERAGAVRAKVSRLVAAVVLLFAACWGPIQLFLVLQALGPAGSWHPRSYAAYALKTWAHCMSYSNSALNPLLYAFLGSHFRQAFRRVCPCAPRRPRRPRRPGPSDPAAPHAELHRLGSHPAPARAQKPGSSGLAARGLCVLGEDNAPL

Substance	Specific Act. (EC50/MS10 EC50)
Ac-[dY][dW]N[aThr]F[azaGly]L[Arg(Me)]W-NH2 [Compound No. 659]	0.6
D-Tyr-D-Pya(4)-Asn-Phg-Phe-AzaGly-Leu-Arg(Me)-Trp-NH2 [Compound No. 530]	3.4
Ac-D-Tyr-D-Trp-Asn-Aze(2)-Phe-AzaGly-Leu-Arg(Me)-Trp-NH2 [Compound No. 563]	0.7
Glycoloyl-D-Tyr-D-Trp-Asn-Thr-Phe-AzaGly-Leu-Arg(Me)-Trp-NH2 (Glycoloyl-[dY][dW]NTF[azaGly]L[Arg(Me)]W-NH2) [Compound No. 681]	1.2
Arg-Arg-D-Tyr-D-Pya(4)-Asn-Ser-Phe-AzaGly-Leu-Arg(Me)-Trp-NH2 [Compound No. 537]	4.7
Cyclohexanecarbonyl-D-Trp-Asn-Thr-Phe-AzaGly-Leu-Arg(Me)-Trp-NH2 (Cyclohexanecarbonyl-[dW]NTF[azaGly]L[Arg(Me)]W-NH2; SMILES CNC(=N)NCCC[C@H](NC(=O)[C@H](CC(C)C)NC(=O)NNC(=O)[C@H](Cc1ccccc1)NC(=O)[C@@H](NC(=O)[C@H](CC(N)=O)NC(=O)[C@@H](Cc1c[nH]c2ccccc12)NC(=O)C1CCCCC1)[C@@H](C)O)C(=O)N[C@@H](Cc1c[nH]c2ccccc12)C(N)=O) [Compound No. 668]	1.2
Ac-D-Tyr-D-Pya(4)-Asn-Thr-Phe-AzaGly-Leu-Arg(Me)-Phe-NH2 [Compound No. 685]	4.8
Ac-[dY][dW]DTF[azaGly]L[Arg(Me)]W-NH2 [Compound No. 647]	10.6
Ac-[dY][dW]NTF[azaGly]S[Arg(Me)]W-NH2 [Compound No. 644]	2.5
Ac-[dY][dW]NTF[azaGly]L[Arg(NO2)]W-NH2 [Compound No. 605]	3.9
D-Tyr-D-Pya(4)-Asn-Ser-Phe-AzaGly-Leu-Arg-Phe-NH2 [Compound No. 521]	2.4
Ac-[dY][dW]NTL[azaGly]L[Arg(Me)]W-NH2 [Compound No. 632]	1.1
